Measured values reported in the kinase profiling compilation of Christmann-Franck et al. (2016).

Assays:
Assay in all cases: KINOMEscan competition binding
Settings in all cases: compound 0.5 µM
MARK1 (human) = MARK1 (human) (UniProt Q9P0L2)
PKN3 (M.tuberculosis) = PKN3 (M.tuberculosis) (UniProt Q6P5Z2)
CLK1 (human) = CLK1 (human) (UniProt P49759)
GAK (human) = GAK (human) (UniProt O14976)
MAPK8 (human) = MAPK8 (human) (UniProt P45983)
PRKAA2 (human) = PRKAA2 (human) (UniProt P54646)
PIP5K1A (human) = PIP5K1A (human) (UniProt Q99755)
AKT1 (human) = AKT1 (human) (UniProt P31749)
[1] = tested on: BRAF (human), P15056 [V600E]
AURKA (human) = AURKA (human) (UniProt O14965)
[2] = tested on: FLT3 (human), P36888 [R834Q]
STK17B (human) = STK17B (human) (UniProt O94768)
TLK1 (human) = TLK1 (human) (UniProt Q9UKI8)
CDC2L2 (human) = CDC2L2 (human) (UniProt Q9UQ88)
TNK2 (human) = TNK2 (human) (UniProt Q07912)
STK25 (human) = STK25 (human) (UniProt O00506)
BRAF (human) = BRAF (human) (UniProt P15056)
RIOK3 (human) = RIOK3 (human) (UniProt O14730)
ERBB2 (human) = ERBB2 (human) (UniProt P04626)
AKT2 (human) = AKT2 (human) (UniProt P31751)
NEK7 (human) = NEK7 (human) (UniProt Q8TDX7)
[3] = tested on: KIT (human), P10721 [V559D/V654A]
RPS6KA1 KD1 (human) = RPS6KA1 KD1 (human) (UniProt Q15418)
CDKL2 (human) = CDKL2 (human) (UniProt Q92772)
MAP3K3 (human) = MAP3K3 (human) (UniProt Q99759)
[4] = target: TYK2 JH2 pseudokinase (human) (UniProt P29597)
CAMK1D (human) = CAMK1D (human) (UniProt Q8IU85)
FGFR4 (human) = FGFR4 (human) (UniProt P22455)
[5] = tested on: PIK3CA (human), P42336 [E545A]
PRKD2 (human) = PRKD2 (human) (UniProt Q9BZL6)
STK10 (human) = STK10 (human) (UniProt O94804)
MAP3K5 (human) = MAP3K5 (human) (UniProt Q99683)
[6] = tested on: PIK3CA (human), P42336 [M1043I]
MAST1 (human) = MAST1 (human) (UniProt Q9Y2H9)
TLK2 (human) = TLK2 (human) (UniProt Q86UE8)
FLT1 (human) = FLT1 (human) (UniProt P17948)
CDK8 (human) = CDK8 (human) (UniProt P49336)
WEE2 (human) = WEE2 (human) (UniProt P0C1S8)
RPS6KA2 KD2 (human) = RPS6KA2 KD2 (human) (UniProt Q15349)
PRKD1 (human) = PRKD1 (human) (UniProt Q15139)
CIT (human) = CIT (human) (UniProt O14578)
CIT (human), sequence (O14578 whole entry, looked up): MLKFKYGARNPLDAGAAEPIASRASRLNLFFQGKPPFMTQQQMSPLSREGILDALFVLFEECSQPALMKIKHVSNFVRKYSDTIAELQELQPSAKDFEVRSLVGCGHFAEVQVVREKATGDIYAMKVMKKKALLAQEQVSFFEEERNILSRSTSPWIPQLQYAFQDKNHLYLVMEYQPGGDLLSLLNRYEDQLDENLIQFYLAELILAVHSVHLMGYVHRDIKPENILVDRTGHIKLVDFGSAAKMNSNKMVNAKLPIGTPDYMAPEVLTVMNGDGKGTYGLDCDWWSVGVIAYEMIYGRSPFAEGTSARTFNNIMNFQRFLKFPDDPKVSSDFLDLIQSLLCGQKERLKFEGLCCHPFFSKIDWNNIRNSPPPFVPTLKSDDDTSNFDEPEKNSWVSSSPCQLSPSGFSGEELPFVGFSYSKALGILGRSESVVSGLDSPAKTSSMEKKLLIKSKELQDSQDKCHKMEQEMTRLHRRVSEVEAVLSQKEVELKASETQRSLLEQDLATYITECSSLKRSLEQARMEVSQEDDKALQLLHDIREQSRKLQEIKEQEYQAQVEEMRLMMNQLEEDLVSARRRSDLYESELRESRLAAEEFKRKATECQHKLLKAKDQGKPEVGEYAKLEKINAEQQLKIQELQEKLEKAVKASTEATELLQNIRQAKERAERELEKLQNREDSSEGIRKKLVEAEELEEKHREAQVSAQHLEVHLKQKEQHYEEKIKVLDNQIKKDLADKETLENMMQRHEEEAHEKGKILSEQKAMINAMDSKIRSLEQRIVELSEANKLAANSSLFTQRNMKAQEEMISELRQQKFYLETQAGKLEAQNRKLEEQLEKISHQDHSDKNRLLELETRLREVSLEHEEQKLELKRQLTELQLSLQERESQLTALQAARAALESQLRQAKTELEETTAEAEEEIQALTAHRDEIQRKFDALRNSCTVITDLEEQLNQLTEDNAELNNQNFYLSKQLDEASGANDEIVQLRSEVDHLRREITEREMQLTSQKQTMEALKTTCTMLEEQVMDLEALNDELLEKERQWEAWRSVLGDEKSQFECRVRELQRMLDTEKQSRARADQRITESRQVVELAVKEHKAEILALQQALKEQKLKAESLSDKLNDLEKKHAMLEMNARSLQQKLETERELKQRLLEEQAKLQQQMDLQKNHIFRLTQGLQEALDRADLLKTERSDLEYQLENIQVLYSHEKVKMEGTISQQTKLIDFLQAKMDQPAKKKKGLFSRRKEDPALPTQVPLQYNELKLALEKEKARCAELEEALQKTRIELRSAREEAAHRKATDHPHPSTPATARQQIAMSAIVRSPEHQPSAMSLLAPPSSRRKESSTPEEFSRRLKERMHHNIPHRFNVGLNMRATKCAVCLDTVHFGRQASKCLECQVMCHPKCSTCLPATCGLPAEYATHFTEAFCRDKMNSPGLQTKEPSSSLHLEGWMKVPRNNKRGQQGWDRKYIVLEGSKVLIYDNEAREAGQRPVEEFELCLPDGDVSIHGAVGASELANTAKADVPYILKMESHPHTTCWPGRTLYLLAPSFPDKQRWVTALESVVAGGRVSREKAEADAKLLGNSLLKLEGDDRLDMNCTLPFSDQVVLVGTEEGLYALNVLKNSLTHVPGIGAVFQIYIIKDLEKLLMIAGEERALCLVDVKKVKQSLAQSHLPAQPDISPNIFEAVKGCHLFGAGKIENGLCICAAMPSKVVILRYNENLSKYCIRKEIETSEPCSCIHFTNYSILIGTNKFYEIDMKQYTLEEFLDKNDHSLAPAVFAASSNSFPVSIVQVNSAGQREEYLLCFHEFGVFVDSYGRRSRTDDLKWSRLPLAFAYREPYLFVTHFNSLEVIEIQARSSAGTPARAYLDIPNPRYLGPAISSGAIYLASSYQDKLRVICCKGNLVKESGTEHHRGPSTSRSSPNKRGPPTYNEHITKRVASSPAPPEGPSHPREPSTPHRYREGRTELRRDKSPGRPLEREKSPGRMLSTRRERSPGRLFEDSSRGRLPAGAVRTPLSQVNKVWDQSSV

MAPK8 (human), sequence (P45983 whole entry, looked up): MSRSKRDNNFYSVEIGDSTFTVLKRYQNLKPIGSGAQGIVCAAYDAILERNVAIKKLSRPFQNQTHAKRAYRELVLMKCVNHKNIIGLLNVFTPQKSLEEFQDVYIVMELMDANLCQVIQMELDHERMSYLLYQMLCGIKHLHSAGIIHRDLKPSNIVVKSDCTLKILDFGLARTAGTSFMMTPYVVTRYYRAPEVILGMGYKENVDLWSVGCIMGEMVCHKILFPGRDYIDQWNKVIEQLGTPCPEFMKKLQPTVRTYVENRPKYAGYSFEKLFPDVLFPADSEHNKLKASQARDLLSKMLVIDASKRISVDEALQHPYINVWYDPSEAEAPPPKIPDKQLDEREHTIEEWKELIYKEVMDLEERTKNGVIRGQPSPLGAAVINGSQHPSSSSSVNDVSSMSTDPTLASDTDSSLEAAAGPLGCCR
STK17B (human), sequence (O94768 whole entry, looked up): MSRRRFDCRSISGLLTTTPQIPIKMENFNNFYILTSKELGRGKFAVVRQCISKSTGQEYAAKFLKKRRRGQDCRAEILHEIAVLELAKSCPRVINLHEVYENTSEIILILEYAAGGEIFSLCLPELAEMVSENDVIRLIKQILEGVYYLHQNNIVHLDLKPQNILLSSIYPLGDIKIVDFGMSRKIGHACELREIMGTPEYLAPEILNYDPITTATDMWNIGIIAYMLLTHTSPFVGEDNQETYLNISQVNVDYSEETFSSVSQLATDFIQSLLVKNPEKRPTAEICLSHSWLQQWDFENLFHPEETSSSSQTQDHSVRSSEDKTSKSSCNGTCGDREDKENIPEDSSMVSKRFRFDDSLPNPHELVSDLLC
PRKD1 (human), sequence (Q15139 whole entry, looked up): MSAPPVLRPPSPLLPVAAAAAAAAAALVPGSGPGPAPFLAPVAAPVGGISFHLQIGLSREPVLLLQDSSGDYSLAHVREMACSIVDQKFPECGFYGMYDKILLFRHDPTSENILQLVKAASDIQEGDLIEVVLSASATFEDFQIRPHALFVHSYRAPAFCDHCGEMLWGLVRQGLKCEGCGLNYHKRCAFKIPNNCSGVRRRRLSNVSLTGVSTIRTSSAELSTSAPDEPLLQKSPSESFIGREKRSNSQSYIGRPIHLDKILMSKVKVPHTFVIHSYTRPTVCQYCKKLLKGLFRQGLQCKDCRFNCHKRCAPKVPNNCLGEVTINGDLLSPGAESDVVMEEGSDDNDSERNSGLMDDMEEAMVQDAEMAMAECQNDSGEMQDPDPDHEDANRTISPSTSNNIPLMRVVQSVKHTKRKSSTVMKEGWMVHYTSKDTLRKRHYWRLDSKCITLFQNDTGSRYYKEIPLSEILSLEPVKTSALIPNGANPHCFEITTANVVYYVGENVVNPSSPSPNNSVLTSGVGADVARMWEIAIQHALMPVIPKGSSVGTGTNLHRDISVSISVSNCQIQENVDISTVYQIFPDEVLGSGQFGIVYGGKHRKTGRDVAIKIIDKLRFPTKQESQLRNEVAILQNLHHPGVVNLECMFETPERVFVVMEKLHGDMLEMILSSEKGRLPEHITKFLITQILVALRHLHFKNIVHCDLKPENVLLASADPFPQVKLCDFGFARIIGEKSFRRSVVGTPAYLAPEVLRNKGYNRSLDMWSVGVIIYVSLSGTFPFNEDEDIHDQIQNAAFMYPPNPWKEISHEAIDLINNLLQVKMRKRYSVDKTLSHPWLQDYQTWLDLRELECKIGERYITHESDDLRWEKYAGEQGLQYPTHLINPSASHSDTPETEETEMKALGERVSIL
CDKL2 (human), sequence (Q92772 whole entry, looked up): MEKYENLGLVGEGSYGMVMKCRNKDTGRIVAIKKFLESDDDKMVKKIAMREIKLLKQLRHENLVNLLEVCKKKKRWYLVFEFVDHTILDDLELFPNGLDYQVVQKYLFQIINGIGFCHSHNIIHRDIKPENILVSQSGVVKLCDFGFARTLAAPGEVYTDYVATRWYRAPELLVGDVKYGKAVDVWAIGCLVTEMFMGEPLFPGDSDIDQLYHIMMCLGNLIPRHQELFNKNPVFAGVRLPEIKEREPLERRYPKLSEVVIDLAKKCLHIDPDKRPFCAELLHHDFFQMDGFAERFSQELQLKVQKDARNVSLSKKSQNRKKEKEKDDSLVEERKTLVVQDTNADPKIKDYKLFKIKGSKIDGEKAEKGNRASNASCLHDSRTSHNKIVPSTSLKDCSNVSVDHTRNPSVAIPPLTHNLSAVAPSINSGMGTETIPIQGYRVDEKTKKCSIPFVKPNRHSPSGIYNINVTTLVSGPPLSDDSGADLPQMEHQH
FGFR4 (human), sequence (P22455 whole entry, looked up): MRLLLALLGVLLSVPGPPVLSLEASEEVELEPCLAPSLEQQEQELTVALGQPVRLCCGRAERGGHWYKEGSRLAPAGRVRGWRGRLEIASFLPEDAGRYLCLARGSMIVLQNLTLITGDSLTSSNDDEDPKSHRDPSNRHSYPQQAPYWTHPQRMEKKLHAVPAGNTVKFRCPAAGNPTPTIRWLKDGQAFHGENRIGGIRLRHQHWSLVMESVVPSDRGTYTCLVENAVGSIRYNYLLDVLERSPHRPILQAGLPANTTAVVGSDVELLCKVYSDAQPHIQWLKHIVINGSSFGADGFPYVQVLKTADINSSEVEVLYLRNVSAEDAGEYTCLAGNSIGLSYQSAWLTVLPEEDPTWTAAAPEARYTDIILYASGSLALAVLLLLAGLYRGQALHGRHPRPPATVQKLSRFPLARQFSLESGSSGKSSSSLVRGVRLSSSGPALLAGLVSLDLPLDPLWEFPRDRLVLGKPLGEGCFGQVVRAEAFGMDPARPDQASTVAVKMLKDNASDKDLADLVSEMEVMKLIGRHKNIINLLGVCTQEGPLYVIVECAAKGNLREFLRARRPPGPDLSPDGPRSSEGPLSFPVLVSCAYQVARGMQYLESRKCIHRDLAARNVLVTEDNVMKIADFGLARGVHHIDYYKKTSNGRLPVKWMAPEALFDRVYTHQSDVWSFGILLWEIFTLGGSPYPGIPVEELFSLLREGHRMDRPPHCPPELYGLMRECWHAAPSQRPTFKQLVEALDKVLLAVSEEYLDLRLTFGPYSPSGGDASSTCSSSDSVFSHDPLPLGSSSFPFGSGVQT

## Cn1c2ccccc2c2c3c(c4c5ccccc5n(CCC#N)c4c21)CNC3=O
MARK1 (human)
  kinase still bound, per cent of control: 64%
PKN3 (M.tuberculosis)
  kinase still bound, per cent of control: 100%
CLK1 (human)
  kinase still bound, per cent of control: 16%
GAK (human)
  kinase still bound, per cent of control: 2%
MAPK8 (human)
  kinase still bound, per cent of control: 18%
PRKAA2 (human)
  kinase still bound, per cent of control: 73%
PIP5K1A (human)
  kinase still bound, per cent of control: 1.6%
AKT1 (human)
  kinase still bound, per cent of control: 100%
[1]
  kinase still bound, per cent of control: 92%
AURKA (human)
  kinase still bound, per cent of control: 74%
[2]
  kinase still bound, per cent of control: 12%
STK17B (human)
  kinase still bound, per cent of control: 100%
TLK1 (human)
  kinase still bound, per cent of control: 83%
CDC2L2 (human)
  kinase still bound, per cent of control: 84%
TNK2 (human)
  kinase still bound, per cent of control: 18%
STK25 (human)
  kinase still bound, per cent of control: 100%
BRAF (human)
  kinase still bound, per cent of control: 100%
RIOK3 (human)
  kinase still bound, per cent of control: 1.2%
ERBB2 (human)
  kinase still bound, per cent of control: 87%
AKT2 (human)
  kinase still bound, per cent of control: 95%
NEK7 (human)
  kinase still bound, per cent of control: 100%
[3]
  kinase still bound, per cent of control: 100%
RPS6KA1 KD1 (human)
  kinase still bound, per cent of control: 36%
CDKL2 (human)
  kinase still bound, per cent of control: 26%
MAP3K3 (human)
  kinase still bound, per cent of control: 2.1%
[4]
  kinase still bound, per cent of control: 84%
CAMK1D (human)
  kinase still bound, per cent of control: 93%
FGFR4 (human)
  kinase still bound, per cent of control: 100%
[5]
  kinase still bound, per cent of control: 100%
PRKD2 (human)
  kinase still bound, per cent of control: 4.8%
STK10 (human)
  kinase still bound, per cent of control: 28%
MAP3K5 (human)
  kinase still bound, per cent of control: 56%
[6]
  kinase still bound, per cent of control: 93%
MAST1 (human)
  kinase still bound, per cent of control: 100%
TLK2 (human)
  kinase still bound, per cent of control: 88%
FLT1 (human)
  kinase still bound, per cent of control: 95%
CDK8 (human)
  kinase still bound, per cent of control: 85%
WEE2 (human)
  kinase still bound, per cent of control: 100%
RPS6KA2 KD2 (human)
  kinase still bound, per cent of control: 100%
PRKD1 (human)
  kinase still bound, per cent of control: 24%
CIT (human)
  kinase still bound, per cent of control: 34%
